Data published in patent US20220160712A1, “METHODS OF TREATING RHEUMATOID ARTHRITIS AND FOR PREDICTING THE RESPONSE TO METHOTREXATE” (CHAN ZUCKERBERG BIOHUB, INC., priority 2020, published 2022).

Assays:
human gut microbiota = assay: MTX treatment of gnotobiotic mice colonized with human stool; 16S-seq and qPCR of gut microbiota; type: in vivo; conditions: for gut microbial community structure, ANOSIM R: p=0.006; for shift in gut microbiota, ANOSIM R: Day 0 vs. 2
C. asparagiforme = assay: RNA-seq after MTX treatment, with time course; type: cell-based, Clostridium asparagiforme; conditions: MTX 100 μg/ml
Description: Genomes were obtained from NCBI's GenBank Assembly database. Culture media was composed of BHI+and allowed to equilibrate in an anaerobic environment prior to use. Briefly, bacteria were cultured in BHI+at 37° C. in an anaerobic chamber. Cultures for each isolate were grown to mid-exponential (achieving an OD600˜0.5), aliquoted into triplicates, treated for 30 minutes with either DMSO or MTX 100 μg/ml, and then removed from the anaerobic chamber. The mid-exponential time point was selected to facilitate comparisons across isolates, as has been done by others (O'Rourke, A., et al. (2020), Antimicrob Agents Chemother 64), since lag and stationary phases would present challenges in term of biomass (lag phase with low biomass) and differing physiology (i.e., sporulation among some isolates and not others). For C. asparagiforme, cultures were incubated for 4 and 20 hours as well and profiled. Cultures were centrifuged at 2000 rpm for 10 minutes at 4° C. to facilitate removal of supernatant, and the remaining bacterial pellet was flash-frozen in liquid nitrogen.
Each bacterial pellet was incubated with 1 ml of Tri reagent (Sigma Aldrich, catalog #: T9424) at room temperature for 10 minutes. The cell suspension was transferred into Lysing Matrix E tubes (MP Biomedicals, 116914050), and homogenized in a bead-beater (Mini-Beadbeater-24, BioSpec) for 5 minutes at room temperature. The sample was incubated with 200 μL of chloroform at room temperature for 10 minutes, followed by centrifugation at 16,000×g for 15 minutes at 4° C. Next, 500 μL of the upper aqueous phase was transferred into a new tube and 500 μL of 100% ethanol was added. To isolate RNA, PureLink RNA Mini Kit (Life Technologies, catalog #: 12183025) was used. This mixture was transferred onto a PureLink spin column and spun at >12,000×g for 30 seconds. The column was washed with 350 μl of wash buffer I as described in the PureLink manual. The column was incubated with 80 μl of PureLink DNase (Life Technologies, catalog #: 12185010) at room temperature for 15 minutes, and washed with 350 μl of wash buffer I. The column was washed with wash buffer II twice as described in the PureLink manual. Total RNA was recovered in 50 μl of RNAase-free water. A second round of off-column DNAse treatment was undertaken. The RNA was incubated with 6 μl of TURBO DNAse (Ambion, ThermoFisher, catalog #: AM2238) at 37° C. for 30 minutes. To stop the reaction, 56 μl of lysis buffer from the PureLink kit and 56 μl of 100% ethanol was added to the sample and vortexed. This suspension was transferred onto a PureLink column and washed once with 350 μl of wash buffer I and twice with 500 μl of wash buffer II. The RNA was recovered in 30 μl of RNAse-free water.
Total RNA was subjected to rRNA depletion using Ribo-Zero Bacterial rRNA Depletion (Illumina, catalog #: MRZB12424), following the manufacturer's protocol. […] For each sample, fastq files are available in NCBI's Sequence Read Archive (SRA), accession number PRJNA656577.
Reads were trimmed using Trimmomatic (v0.32) (Bolger, A. M., et al., (2014), Bioinformatics 30, 2114-2120), and ribosomal reads were removed using SortMeRNA (v2.1) (Kopylova, E., et al., (2012), Bioinformatics 28, 3211-3217). Reads were mapped to reference genomes using Bowtie2 (Langmead, B., and Salzberg, S. L. (2012), Nat Methods 9, 357-359) using the following options: -q, —met file, —end-to-end, —sensitive. […]

[1] = Donor 2, individually housed mice, MTX 50 mg/kg
[2] = combined gnotobiotic experiments, multi-factor design, padj<0.05, DESeq

SMILES: CN(Cc1cnc2nc(N)nc(N)c2n1)c1ccc(C(=O)N[C@@H](CCC(=O)O)C(=O)O)cc1 [MTX, methotrexate]
- Total colonization (16S copy number per gram stool) (human gut microbiota; Donor 1 (healthy) humanized mice, oral vehicle, 1 mg/kg or 50 mg/kg MTX, 4 days): comparable between groups
- microbial richness (number of ASVs) (human gut microbiota; Donor 1 humanized mice, oral vehicle, 1 mg/kg or 50 mg/kg MTX, 4 days): comparable between groups
- number of low-dose ASVs also altered in a consistent direction in the high-dose group (human gut microbiota; Donor 1 mice, 1 mg/kg and 50 mg/kg): 19
- gut microbial community structure, ANOSIM R (human gut microbiota; Donor 1 mice, after 1 day of treatment): 0.60
- gut microbial community structure, ANOSIM R (human gut microbiota; Donor 1 mice, final day of treatment): 0.75
- number of bacterial genera altered (human gut microbiota; Donor 1 mice, high-dose MTX 50 mg/kg): 14
- Bacteroidetes phylum compared to vehicle controls (human gut microbiota; Donor 1 mice, high-dose MTX 50 mg/kg oral, Day 4 DESeq padj=0.001): significantly decreased
- number of amplicon sequence variants (ASVs) altered (human gut microbiota; Donor 1 mice, high-dose MTX 50 mg/kg, DESeq padj<0.01, Day 4): 81
- number of ASVs significantly altered (human gut microbiota; Donor 1 mice, low-dose MTX 1 mg/kg): 26
- Bacteroidetes longitudinal trend, slope (generalized linear mixed-effects model) (human gut microbiota; Donor 1 mice, p=0.007): −0.066
- Microbial richness (human gut microbiota; Donor 2 (treatment naive RA patient), individually housed mice, MTX 50 mg/kg, p=0.4): comparable between groups
- number of ASVs with changed abundance (human gut microbiota; [1]): 23
- number of genera with changed abundance (human gut microbiota; [1]): 8
- phylum level changes (human gut microbiota; [1]): No phylum level changes were detected
- ASV23 (Bacteroides faecichinchillae/faecis/finegoldii/thetaiotaomicron) abundance (human gut microbiota; Donor 2, individually housed mice, high-dose MTX (FIG. 7B)): reduced
- ASV296 (Lachnoclostridium) abundance (human gut microbiota; Donor 2, individually housed mice, high-dose MTX (FIG. 7C)): reduced
- Dielma fastidiosa (ASV72) abundance (human gut microbiota; Donor 2, individually housed mice, high-dose MTX (FIG. 7D)): decreased
- ASV908 (Paraprevotella) abundance (human gut microbiota; Donor 2, individually housed mice, high-dose MTX (FIG. 7E)): increased
- number of ASVs with consistent shifts overlapping between route and rescue (human gut microbiota; Donor 3 mice, MTX 50 mg/kg): 41
- shift in gut microbiota, ANOSIM R (human gut microbiota; Donor 3 mice, rescue experiment (oral MTX with or without folic acid), p=0.002): 0.99
- shift in gut microbiota, ANOSIM R (human gut microbiota; Donor 3 mice, route experiment (oral or IP MTX 50 mg/kg), p=0.007): 0.89
- number of ASVs differentially abundant (human gut microbiota; [2]): 61
- number of genera differentially abundant (human gut microbiota; [2]): 31
- number of phyla differentially abundant (human gut microbiota; [2]): Four
- a-diversity (human gut microbiota; combined gnotobiotic experiments, p>0.05, ANOVA): not affected
- number of pathways enriched (C. asparagiforme): 23 pathways
- number of differentially expressed genes (C. asparagiforme; 30 minutes, padj<0.2, DESeq): 468 genes
- number of transcripts differentially expressed at all three timepoints (C. asparagiforme; 30 minutes, 4 and 20 hours, padj<0.2, DESeq): 41
- DHFR or AICAR transformylase expression (C. asparagiforme; time course): no significant differences
- adenylosuccinate synthase (ADSS) expression (C. asparagiforme; time course): significantly upregulated
